Measurements taken from PMC7914897, “Cytotoxic Potential of a-Azepano- and 3-Amino-3,4-SeCo-Triterpenoids” (International Journal of Molecular Sciences, 2021).
Where two headings read alike, the source gives them in different places.

Key:
[1] = system: A2780 (ovarian carcinoma); assay: SRB cytotoxicity assay, 72 h; format: cell-based, human; conditions: Homo sapiens; A2780, 72 h, cut-off 30 µM; read-out: EC50
Procedure: (§1) The cytotoxicity of compounds 1–20 was evaluated by means of a colorimetric sulforhodamine B (SRB) assay. For all compounds, the EC50 values were determined for the human tumor cell lines A375 (malignant melanoma), HT29 (colorectal carcinoma), MCF-7 (breast carcinoma), A2780 (ovarian carcinoma), FaDu (hypopharyngeal carcinoma), and NIH 3T3 (non-malignant mouse fibroblasts).
(§2) In short, exponentially growing cells were seeded into 96-well plates on day 0 at the appropriate cell densities to prevent confluence of the cells during the period of experiment. After 24 h, the cells were treated with serial dilutions of the compounds (0–30 µM) for 72 h. The final concentration of DMSO never exceeded 0.5%, which was non-toxic to the cells. After a 72 h treatment, the supernatant medium from the 96-well plates was discarded, and the cells were fixed with 10% TCA. For a thorough fixation, the plates were allowed to rest at 4 °C. After fixation, the cells were washed in a strip washer. The washing was done four times with water using alternate dispensing and aspiration procedures. The plates were then dyed with 100 µL of 0.4% SRB for about 20 min. After dying, the plates were washed with 1% acetic acid to remove the excess of the dye and allowed to air-dry overnight. Tris base solution (200 µL, 10 mM) was added to each well and absorbance was measured at λ = 570 nm (using a 96 well plate reader, Tecan Spectra, Crailsheim, Germany). The percentages of surviving cells relative to untreated controls were determined.

[2] = system: A375 (malignant melanoma); assay: SRB cytotoxicity assay, 72 h; format: cell-based, human; conditions: A375, 72 h, cut-off 30 µM, read-out: EC50
Procedure: as §1, §2

[3] = system: FaDu (hypopharyngeal carcinoma); assay: SRB cytotoxicity assay, 72 h; format: cell-based, human; conditions: Homo sapiens, cut-off 30 µM, read-out: EC50
Procedure: as §1, §2

[4] = system: HT29 (colorectal carcinoma); assay: SRB cytotoxicity assay, 72 h; format: cell-based, human; conditions: Homo sapiens, HT-29; HT29, 72 h, cut-off 30 µM; read-out: EC50
Procedure: as §1, §2

MCF-7 (breast carcinoma) = assay: SRB cytotoxicity assay, 72 h; format: cell-based, human; conditions: Homo sapiens, MCF7; MCF-7, 72 h, cut-off 30 µM; read-out: EC50
Procedure: as §1, §2

[5] = system: NIH 3T3 (non-malignant mouse fibroblasts); assay: SRB cytotoxicity assay, 72 h; format: cell-based; conditions: Mus musculus, NIH3T3; NIH 3T3, 72 h, cut-off 30 µM; read-out: EC50
Procedure: as §1, §2

[6] = system: panel of approximately 60 cancer cell lines; design: method as in earlier work; conditions: standard drugs; read-out: GI50 MG_MID60; cited from earlier work
RPMI-8226 (Leukemia) = system: RPMI-8226 (Leukemia); design: method as in earlier work; conditions: cited from earlier work
HOP-62 (NSC lung cancer) = system: HOP-62 (NSC lung cancer); design: method as in earlier work; conditions: cited from earlier work
HOP-92 (NSC lung cancer) = system: HOP-92 (NSC lung cancer); design: method as in earlier work; conditions: cited from earlier work
[7] = system: NCI-H226 (NSC lung cancer); design: method as in earlier work; conditions: cited from earlier work
[8] = system: NCI-H23 (NSC lung cancer); design: method as in earlier work; conditions: cited from earlier work
[9] = system: NCI-H460 (NSC lung cancer); design: method as in earlier work; conditions: cited from earlier work
[10] = system: NCI-H522 (NSC lung cancer); design: method as in earlier work; conditions: cited from earlier work
HCC-2998 (Colon cancer) = system: HCC-2998 (Colon cancer); design: method as in earlier work; conditions: cited from earlier work
SF-539 (CNS cancer) = system: SF-539 (CNS cancer); design: method as in earlier work; conditions: cited from earlier work
SNB-75 (CNS cancer) = system: SNB-75 (CNS cancer); design: method as in earlier work; conditions: cited from earlier work
MALME-3M (Melanoma) = system: MALME-3M (Melanoma); design: method as in earlier work; conditions: cited from earlier work
MDA-MB-435 (Melanoma) = system: MDA-MB-435 (Melanoma); design: method as in earlier work; conditions: cited from earlier work
OVCAR-3 (Ovarian cancer) = system: OVCAR-3 (Ovarian cancer); design: method as in earlier work; conditions: cited from earlier work
CAKI-1 (Renal cancer) = system: CAKI-1 (Renal cancer); design: method as in earlier work; conditions: cited from earlier work
MCF7 (Breast cancer) = system: MCF7 (Breast cancer); design: method as in earlier work; conditions: cited from earlier work
[11] = system: MDA-MB-31/ATCC (Breast cancer); design: method as in earlier work; conditions: cited from earlier work
HT29 (Colon cancer) = assay: NCI-60 screen (SRB, 48 h); conditions: HT29, 1 dose 10 µM
[12] = system: panel of approximately 60 cancer cell lines; assay: NCI-60 screen (SRB, 48 h), full panel; conditions: for activity at 10 µM: Homo sapiens, 48 h
SR (Leukemia) = assay: NCI-60 screen (SRB, 48 h); format: cell-based; conditions: 1 dose 10 µM
COLO 205 (Colon cancer) = assay: NCI-60 screen (SRB, 48 h); conditions: COLO 205, 1 dose 10 µM

| SMILES | EC50 [1] [µM] | EC50 ([2]; Homo sapiens, A-375, 72 h) [µM] | EC50 [3] [µM] | EC50 [4] [µM] | EC50 (MCF-7 (breast carcinoma)) [µM] | EC50 [5] [µM] | Positive Cytostatic Effect (cell lines with percent growth 0 to 50 / total) ([12]; 1 dose 10 µM) | number of cancer cell lines the compound was active against ([12]; 1 dose 10 µM) | activity at 10 µM ([12]; read-out: Mean Growth, %) [%] | activity at 10 µM ([12]; read-out: Range of Growth, %) [%] | also measured |
| --- | --- | --- | --- | --- | --- | --- | --- | --- | --- | --- | --- |
| C=C(C)[C@@H]1CC[C@]2(C(=O)NC3CCCCC3)CC[C@]3(C)[C@H](CC[C@@H]4[C@@]5(C)CCCNC(C)(C)[C@@H]5CC[C@]43C)[C@@H]12 [Compound 10] | 2.27 ± 0.4 | 2.18 ± 0.2 | 2.04 ± 0.1 | 0.98 ± 0.1 | 1.9 ± 0.1 | 1.5 ± 0.2 |  |  |  |  |  |
| O=c1[nH]cc(F)c(=O)[nH]1 [Compound 5-FU, 5-fluorouracil] |  |  |  |  |  |  |  |  |  |  | GI50 [6]: 6.97 µM; GI50 (RPMI-8226 (Leukemia)): 0.04 µM; GI50 (HOP-62 (NSC lung cancer)): 0.39 µM; GI50 (HOP-92 (NSC lung cancer)): 77.9 µM; GI50 [7]: 54.7 µM; GI50 [8]: 0.33 µM; GI50 [9]: 0.05 µM; GI50 [10]: 7.27 µM; GI50 (HCC-2998 (Colon cancer)): 0.05 µM; GI50 (SF-539 (CNS cancer)): 0.06 µM; GI50 (SNB-75 (CNS cancer)): 78.7 µM; GI50 (MALME-3M (Melanoma)): 0.05 µM; GI50 (MDA-MB-435 (Melanoma)): 0.07 µM; GI50 (OVCAR-3 (Ovarian cancer)): 0.01 µM; GI50 (CAKI-1 (Renal cancer)): 0.07 µM; GI50 (MCF7 (Breast cancer)): 0.07 µM; GI50 [11]: 6.6 µM |
| CC(=O)[C@@H]1CC[C@]2(CO)CC[C@]3(C)[C@H](CC[C@@H]4[C@@]5(C)CCCNC(C)(C)[C@@H]5CC[C@]43C)[C@@H]12 [Compound 2, azepanomessagenin] | 7.71 ± 0.4 | 7.92 | 6.21 ± 1.2 | 6.32 ± 0.4 | 5.78 ± 0.7 | 8.03 ± 1.4 | 0/59 | did not show antiproliferative activity | 99.2 | 68.1 to 136 | EC50 [2]: 7.82 ± 0.3 µM; Growth % of the Most Sensitive Cell Lines (HT29 (Colon cancer)): 68.07% |
| CC1(C)NCCC[C@]2(C)[C@H]3CC=C4[C@@H]5C[C@@](C)(CO)CC[C@]5(C)CC[C@@]4(C)[C@]3(C)CC[C@@H]12 [Compound 5, azepano-glycyrretol] | 6.36 ± 0.6 | 5.69 ± 0.4 | 4.81 ± 0.9 | 3.97 ± 0.4 | 5.68 ± 0.5 | 7.43 ± 1.2 | 13/58 | 8 cell lines | 56.2 | -4.98 to 98.9 | Growth % of the Most Sensitive Cell Lines (SR (Leukemia)): −1.30%; Growth % of the Most Sensitive Cell Lines (COLO 205 (Colon cancer)): −4.98%; Positive Cytotoxic Effect (cell lines with percent growth < 0 / total) ([12]; 1 dose 10 µM): 2/58 |
